Consider 3 compounds from patent US4272437A, “Antibacterial agents, and 4-thio azetidinone intermediates” (priority 1979, dated 1981).

One assay concerns E. coli A-20341-1. The assay is described as follows: MIC, tube dilution, Escherichia coli A20341-1. It counts as cell-based. The conditions noted are these: Escherichia coli, A203411; E. coli A20341-1; overnight 37° C.; read-out: Minimum Inhibitory Concentration (M.I.C.). The text has this: (§1) Representative compounds of the present invention were subjected to in vitro antibiotic screening against a variety of microorganisms.

The test system of a further assay is Ser. marcescens A-20019. The assay is described as follows: MIC, tube dilution, Serratia marcescens A20019. The conditions noted are these: Serratia marcescens, A20019, Serratia marcescens A20019; overnight 37° C.; read-out: Minimum Inhibitory Concentration (M.I.C.). The assay is classed as cell-based.
Excerpt: as §1

Assay [1] concerns Klebsiella species A20468. Kind of assay: MIC, tube dilution, Klebsiella species A20468. The assay is classed as cell-based. The conditions noted are these: Klebsiella species (K. pneumoniae) A20468; overnight 37° C.; read-out: Minimum Inhibitory Concentration (M.I.C.).
Excerpt: as §1

The test system of the next assay is Pr. vulgaris A-9716. The assay is described as follows: MIC, tube dilution, Proteus vulgaris / Proteus mirabilis A9716. It counts as cell-based, Proteus vulgaris (name changed to Proteus mirabilis). Particulars: Proteus vulgaris, overnight 37° C.
Excerpt: as §1

A further assay concerns Ent. cloacae A-9659. Kind of assay: MIC, tube dilution, Enterobacter cloacae A9659. The conditions noted are these: Enterobacter cloacae, A9659, Enterobacter cloacae A9659; overnight 37° C.; read-out: Minimum Inhibitory Concentration (M.I.C.). The assay is classed as cell-based.
Excerpt: as §1

The test system of another assay is Pr. mirabilis A-9900. The assay is described as follows: MIC, tube dilution, Proteus mirabilis A9900. The assay is classed as cell-based. The conditions noted are these: Proteus mirabilis, A9900, Proteus mirabilis A9900; overnight 37° C.; read-out: Minimum Inhibitory Concentration (M.I.C.).
Excerpt: as §1

In assay [2] the test system is Staph. aureus A-9537 and 50% serum. The assay is described as follows: MIC, tube dilution, Staph. aureus A9537 + 50% serum. The assay is classed as cell-based, Staphylococcus aureus. The conditions noted are these: Staphylococcus aureus, overnight 37° C., read-out: Minimum Inhibitory Concentration (M.I.C.).
Excerpt: as §1

The next assay relates to Staph. aureus A-9537. The assay is described as follows: MIC, tube dilution, Staphylococcus aureus A9537. It counts as cell-based. Particulars: overnight 37° C., Nutrient Broth; for MIC: Staphylococcus aureus, A9537, Staph. aureus A9537, read-out: Minimum Inhibitory Concentration (M.I.C.).
Excerpt: as §1

The test system of the next assay is E. coli A-15119. Kind of assay: MIC, tube dilution, Escherichia coli A15119. The assay is classed as cell-based. The conditions noted are these: Escherichia coli, A15119, E. coli A15119; overnight 37° C.; read-out: Minimum Inhibitory Concentration (M.I.C.).
Excerpt: as §1

The subject of another assay is Ps. aeruginosa A-9843A. The assay is described as follows: MIC, tube dilution, Pseudomonas aeruginosa A9843A. It counts as cell-based. The conditions noted are these: Pseudomonas aeruginosa, A9843A, read-out: Minimum Inhibitory Concentration (M.I.C.), Pseudomonas aeruginosa A9843A; overnight 37° C.
Excerpt: as §1

A further assay relates to Ent. cloacae A-9656. The assay is described as follows: MIC, tube dilution, Enterobacter cloacae A9656. It counts as cell-based. Particulars: overnight 37° C., read-out: Minimum Inhibitory Concentration (M.I.C.).
Excerpt: as §1

For a further assay, the system named is Str. pneumoniae A-9585. The assay is described as follows: MIC, tube dilution, Streptococcus pneumoniae A9585. Particulars: overnight 37° C., Nutrient Broth; for MIC: Streptococcus pneumoniae, A9585, Str. pneumoniae A9585, read-out: Minimum Inhibitory Concentration (M.I.C.). It counts as cell-based.
Excerpt: as §1

The test system of a further assay is Ps. aeruginosa A-21213. The assay is described as follows: MIC, tube dilution, Pseudomonas aeruginosa A21213. The conditions noted are these: Pseudomonas aeruginosa A21213; overnight 37° C.; read-out: Minimum Inhibitory Concentration (M.I.C.). It counts as cell-based.
Excerpt: as §1

The test system of the next assay is K. pneumoniae A-15130. Kind of assay: MIC, tube dilution, Klebsiella pneumoniae A15130. It counts as cell-based. Particulars: Klebsiella pneumoniae, A15130, K. pneumoniae A15130; overnight 37° C.; read-out: Minimum Inhibitory Concentration (M.I.C.).
Excerpt: as §1

The test system of assay [3] is Staph. aureus (Meth-Res) A-15097. The assay is described as follows: MIC, tube dilution, Staphylococcus aureus A15097 (Meth-Res). It counts as cell-based. Particulars: Staphylococcus aureus, read-out: Minimum Inhibitory Concentration (M.I.C.), Staph. aureus A15097 (Meth-Res); overnight 37° C.
Excerpt: as §1

Another assay has as its system Str. pyogenes A-9604. Kind of assay: MIC, tube dilution, Streptococcus pyogenes A9604. The assay is classed as cell-based. Particulars: overnight 37° C., Nutrient Broth; for MIC: Streptococcus pyogenes, A9604, Str. pyogenes A9604, read-out: Minimum Inhibitory Concentration (M.I.C.).
Excerpt: as §1

The next assay relates to Proteus rettgeri A21203. The assay is described as follows: MIC, tube dilution, Proteus rettgeri A21203. It counts as cell-based. The conditions noted are these: Providencia rettgeri, overnight 37° C., read-out: Minimum Inhibitory Concentration (M.I.C.).
Excerpt: as §1

The test system of assay [4] is Staph. aureus (Pen-Res) A-9606. Kind of assay: MIC, tube dilution, Staphylococcus aureus A9606 (Pen-Res). It counts as cell-based. Particulars: Staphylococcus aureus, overnight 37° C.
Excerpt: as §1

The test system of a further assay is Str. faecalis A-20688. Kind of assay: MIC, tube dilution, Streptococcus faecalis A20688. It counts as cell-based. Particulars: Enterococcus faecalis, A20688, Str. faecalis A20688; overnight 37° C.; read-out: Minimum Inhibitory Concentration (M.I.C.).
Excerpt: as §1

The next assay has as its system Pr. morganii A-15153. The assay is described as follows: MIC, tube dilution, Proteus morganii A15153. The conditions noted are these: Morganella morganii, A15153, Proteus morganii A15153; overnight 37° C.; read-out: Minimum Inhibitory Concentration (M.I.C.). The assay is classed as cell-based.
Excerpt: as §1

Setting [5] is: A9716, read-out: Minimum Inhibitory Concentration (M.I.C.), Proteus vulgaris / Proteus mirabilis A9716.
The mark [6] stands for this setting: read-out: Minimum Inhibitory Concentration (M.I.C.), Staph. aureus A9606 (Pen-Res).

≈ marks a conversion by molar mass, not a printed value. Like-named read-outs stand apart in the source and are kept apart here. Where only a bound is given, the exact number is not on record here.

Take `O=C([O-])C1=C(Cc2ccco2)S[C@@H]2CC(=O)N12.[Na+]` [Preparation 18, Sodium 2-(2-Furylmethyl)penem-3-carboxylate]: the MIC in the assay with E. coli A-20341-1 was over 125 µg/mL; with Ser. marcescens A-20019, 32 µg/mL; in [1], over 125 µg/mL; in the assay on Pr. vulgaris A-9716 (setting [5]), 2 µg/mL; in the assay with Ent. cloacae A-9659, 16 µg/mL; with Pr. mirabilis A-9900, 2 µg/mL. In addition, the MIC is over 63 µg/mL in assay [2]; 0.5 µg/mL in the assay on Staph. aureus A-9537; 2 µg/mL in the assay on E. coli A-15119; over 125 µg/mL with Ps. aeruginosa A-9843A; 32 µg/mL with Ent. cloacae A-9656 (Enterobacter cloacae A9656); 0.06 µg/mL in the assay on Str. pneumoniae A-9585. Further, the MIC in the assay with Ps. aeruginosa A-21213 was over 125 µg/mL; in the assay with K. pneumoniae A-15130 it was 32 µg/mL; in assay [3], 16 µg/mL; in the assay on Str. pyogenes A-9604 it was 0.25 µg/mL; with Proteus rettgeri A21203 (Proteus rettgeri A21203), 4 µg/mL; in [4] (setting [6]) it was 1 µg/mL. The MIC is 63 µg/mL in the assay with Str. faecalis A-20688 and 8 µg/mL in the assay with Pr. morganii A-15153.

In the case of `O=C(O)C1=C(Cc2c[nH]c3ccccc23)SC2CC(=O)N12` (stereo not drawn) [Preparation 19, 2-(3'-Indole)methylpenem-3-carboxylic Acid], the MIC with E. coli A-20341-1 is over 125 µg/mL; in the assay with Ser. marcescens A-20019 it was 63 µg/mL (≈ 210 µM); in assay [1], over 125 µg/mL; in the assay with Pr. vulgaris A-9716 (A9716, Proteus vulgaris / Proteus mirabilis A9716, read-out: Minimum Inhibitory Concentration (M.I.C.)), 2 µg/mL (≈ 6.66 µM); in the assay with Ent. cloacae A-9659 it was 63 µg/mL (≈ 210 µM); with Pr. mirabilis A-9900, 1 µg/mL (≈ 3.33 µM). Also, the MIC in [2] is 32 µg/mL; in the assay with Staph. aureus A-9537, 0.03 µg/mL (≈ 0.0999 µM); in the assay on E. coli A-15119, 8 µg/mL (≈ 26.6 µM); in the assay on Ps. aeruginosa A-9843A, over 125 µg/mL; in the assay with Ent. cloacae A-9656 (Enterobacter cloacae, A9656, Enterobacter cloacae A9656), 63 µg/mL (≈ 210 µM); with Str. pneumoniae A-9585, 0.03 µg/mL (≈ 0.0999 µM). Besides, the MIC in the assay on Ps. aeruginosa A-21213 is over 125 µg/mL; in the assay on K. pneumoniae A-15130, 32 µg/mL (≈ 107 µM); in assay [3], 125 µg/mL (≈ 416 µM); in the assay on Str. pyogenes A-9604, 0.06 µg/mL (≈ 0.2 µM); in the assay with Proteus rettgeri A21203 (A21203, Proteus rettgeri A21203), 2 µg/mL (≈ 6.66 µM); in [4] (Staph. aureus A9606 (Pen-Res), read-out: Minimum Inhibitory Concentration (M.I.C.)) it was 0.5 µg/mL (≈ 1.66 µM). The MIC with Str. faecalis A-20688 is 125 µg/mL (≈ 416 µM); in the assay with Pr. morganii A-15153, 2 µg/mL (≈ 6.66 µM).

On to `O=C([O-])C1=C(Cc2ccccc2)S[C@@H]2CC(=O)N12.[Na+]` [Preparation 21, Sodium 2-Benzylpenem-3-carboxylate], for which the MIC in the assay on E. coli A-20341-1 was determined as 125 µg/mL; in the assay with Ser. marcescens A-20019, 63 µg/mL; in [1], 125 µg/mL; in the assay with Pr. vulgaris A-9716 (setting [5]) it was 2 µg/mL; in the assay on Ent. cloacae A-9659, 63 µg/mL; in the assay with Pr. mirabilis A-9900, 1 µg/mL. For the same compound, the MIC was over 63 µg/mL in assay [2]; 4 µg/mL in the assay on E. coli A-15119; 125 µg/mL in the assay with Ps. aeruginosa A-9843A; 32 µg/mL in the assay with Ent. cloacae A-9656 (Enterobacter cloacae A9656); 125 µg/mL with Ps. aeruginosa A-21213; 125 µg/mL in the assay on K. pneumoniae A-15130. Besides, the MIC amounted to 32 µg/mL in assay [3]; 4 µg/mL in the assay on Proteus rettgeri A21203 (Proteus rettgeri A21203); 1 µg/mL in assay [4] (setting [6]); 32 µg/mL with Str. faecalis A-20688; 4 µg/mL with Pr. morganii A-15153. Besides, the figures for the “Minimum Inhibitory Concentration (M.I.C.)” value with Staph. aureus A-9537 (Staph. aureus A9537), in the assay on Str. pneumoniae A-9585 (Str. pneumoniae A9585) and with Str. pyogenes A-9604 (Str. pyogenes A9604) were “.06 µg/mL”, 2 µg/mL and 8 µg/mL, respectively.
